Data reported in patent publication US12404265B2, “Substituted pyridine derivatives as SARM1 inhibitors” (Nura Bio, Inc., priority 2020, dated 2025).
pIC50: −log10 of the molar value.

These compounds were tested against T1, human SARM1(50-724) (Homo sapiens, UniProt Q6SZW1) (assay: SARM1 NADase biochemical assay (HPLC of NAD and NAM)). Conditions: 40 nM human SARM1(50-724), 0.3 mM NMN, 20 μM NAD, 60 minutes room temperature; dose-response from 100 μM, 1:3 dilution.
T1 construct: 40 nM human SARM1(50-724)
T1 sequence (Q6SZW1 50-724): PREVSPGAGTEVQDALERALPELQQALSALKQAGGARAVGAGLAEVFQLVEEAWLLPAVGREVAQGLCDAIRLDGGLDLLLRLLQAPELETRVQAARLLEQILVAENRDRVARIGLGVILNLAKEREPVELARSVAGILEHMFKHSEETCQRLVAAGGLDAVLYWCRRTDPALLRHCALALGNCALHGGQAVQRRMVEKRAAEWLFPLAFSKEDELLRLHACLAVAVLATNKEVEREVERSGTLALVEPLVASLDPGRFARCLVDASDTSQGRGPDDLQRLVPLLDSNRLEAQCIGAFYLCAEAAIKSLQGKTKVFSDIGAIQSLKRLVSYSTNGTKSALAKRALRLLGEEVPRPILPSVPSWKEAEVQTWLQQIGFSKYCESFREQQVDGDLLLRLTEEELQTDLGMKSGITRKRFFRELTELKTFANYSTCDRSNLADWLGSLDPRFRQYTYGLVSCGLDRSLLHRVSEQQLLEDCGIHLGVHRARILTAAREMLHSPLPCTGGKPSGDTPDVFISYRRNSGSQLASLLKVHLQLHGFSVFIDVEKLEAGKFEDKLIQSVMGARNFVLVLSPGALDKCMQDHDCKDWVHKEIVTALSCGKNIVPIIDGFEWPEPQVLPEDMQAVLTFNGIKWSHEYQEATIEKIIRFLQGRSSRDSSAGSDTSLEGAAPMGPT
Procedure, shortened: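 Human SARM1(50-724) at 40 nM with 0.3 mM NMN, 20 μM NAD, 1 mM TCEP in 25 mM HEPES pH 7.4, 10 mM KCl, 10 mM MgCl2, 1% DMSO; 60 min at room temperature, formic acid quench. NAD and NAM quantified by reverse-phase HPLC peak area; single point 50 μM or 1:3 series from 100 μM.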

pIC50	Compound
> 6.00	N#Cc1c(F)cc(CCC(=O)Nc2cc(-c3ccncc3)n[nH]2)cc1F [Example 104, 3-(4-Cyano-3,5-difluorophenyl)-N-(3-(pyridin-4-yl)-1H-pyrazol-5-yl)propanamide]
> 6.00	Cn1c(NC(=O)CCc2ccc(Cl)cc2)cnc1-c1ccncc1 [Example 105, 3-(4-Chlorophenyl)-N-(1-methyl-2-(pyridin-4-yl)-1H-imidazol-5-yl)propanamide]
> 6.00	Cc1cnccc1-c1cc(NC(=O)CCc2ccc(Cl)cc2)[nH]n1 [Example 106, 3-(4-Chlorophenyl)-N-(3-(3-methylpyridin-4-yl)-1H-pyrazol-5-yl)propanamide]
5.00 to 6.00	Cc1nn(-c2ccncc2)cc1NC(=O)CCc1ccc(Cl)cc1 [Example 107]
5.00 to 6.00	O=C(CCc1ccc(Cl)cc1)Nc1nc(-c2ccncc2)c[nH]1 [Example 108]
5.00 to 6.00	Cc1cnccc1-n1cc(NC(=O)CCc2ccc(Cl)cc2)cn1 [Example 109, 3-(4-Chlorophenyl)-N-(1-(3-methylpyridin-4-yl)-1H-pyrazol-4-yl)propanamide]
> 6.00	Cc1cnccc1-c1n[nH]c(NC(=O)CCc2ccc(Cl)cc2)c1C [Example 110]
> 6.00	Cc1cnccc1-c1n[nH]c(NC(=O)CCc2cc(F)c(Cl)c(F)c2)c1C [Example 111, 3-(4-Chloro-3,5-difluorophenyl)-N-(4-methyl-3-(3-methylpyridin-4-yl)-1H-pyrazol-5-yl)propanamide]
5.00 to 6.00	Cc1cnccc1-c1n[nH]c(NC(=O)CCc2ccc(C#N)c(F)c2)c1C [Example 112, 3-(4-Cyano-3-fluorophenyl)-N-(4-methyl-3-(3-methylpyridin-4-yl)-1H-pyrazol-5-yl)propanamide]
5.00 to 6.00	Cc1cnccc1-c1n[nH]c(NC(=O)CCc2cc(F)c(C#N)c(F)c2)c1C [Example 113]
> 6.00	O=C(CCc1ccc(Br)cc1)Nc1cnn(-c2ccncc2)c1 [Example 114, 3-(4-Bromophenyl)-N-(1-(pyridin-4-yl)-1H-pyrazol-4-yl)propanamide]
5.00 to 6.00	O=C(CCc1ccc(F)cc1)Nc1cnn(-c2ccncc2)c1 [Example 115]
> 6.00	O=C(CCc1ccc(Cl)cc1)Nc1[nH]nc(-c2ccncc2)c1CO [Example 116, 3-(4-Chlorophenyl)-N-(4-(hydroxymethyl)-3-(pyridin-4-yl)-1H-pyrazol-5-yl)propanamide]
> 6.00	O=C(CCc1cc(F)c(Cl)c(F)c1)Nc1[nH]nc(-c2ccncc2)c1CO [Example 117, 3-(4-Chloro-3,5-difluorophenyl)-N-(4-(hydroxymethyl)-3-(pyridin-4-yl)-1H-pyrazol-5-yl)propanamide]
> 6.00	O=C(CCc1ccc(Cl)c(F)c1)Nc1[nH]nc(-c2ccncc2)c1CO [Example 118]
> 6.00	O=C(CCc1cc(F)c(F)c(F)c1)Nc1[nH]nc(-c2ccncc2)c1CO [Example 119]
> 6.00	Cc1c(-c2ccncc2)n[nH]c1NC(=O)C[S+]([O-])c1ccc(Cl)cc1 (centres unmarked) [Example 120, 2-((4-chlorophenyl)sulfinyl)-N-(4-methyl-3-(pyridin-4-yl)-1H-pyrazol-5-yl)acetamide]
> 6.00	Cc1c(-c2ccncc2)n[nH]c1NC(=O)CS(=O)(=O)c1ccc(Cl)cc1 [Example 121, 2-((4-chlorophenyl)sulfonyl)-N-(4-methyl-3-(pyridin-4-yl)-1H-pyrazol-5-yl)acetamide]
> 6.00	COc1c(-c2ccncc2)n[nH]c1NC(=O)CCc1ccc(Cl)cc1 [Example 122, 3-(4-Chlorophenyl)-N-(4-methoxy-3-(pyridin-4-yl)-1H-pyrazol-5-yl)propanamide]
> 6.00	O=C(CCc1ccc(Cl)cc1)Nc1[nH]nc(-c2ccncc2)c1C1CC1 [Example 123, 3-(4-Chlorophenyl)-N-(4-cyclopropyl-3-(pyridin-4-yl)-1H-pyrazol-5-yl)propanamide]
> 6.00	Cc1c(-c2ccncc2)n[nH]c1NC(=S)CCc1ccc(Cl)cc1 [Example 124, 3-(4-Chlorophenyl)-N-[4-methyl-3-(pyridin-4-yl)-1H-pyrazol-5-yl]propanethioamide]
> 6.00	O=C(CCc1ccc(Cl)cc1)Nc1[nH]nc(-c2ccncc2)c1C(F)(F)F [Example 125, 3-(4-Chlorophenyl)-N-[3-(pyridin-4-yl)-4-(trifluoromethyl)-1H-pyrazol-5-yl]propanamide]

pIC50	Compound
5.00 to 6.00	O=C(CCc1cccc(Cl)c1)Nc1cnn(-c2ccncc2)c1Cl [Example 126, N-[5-Chloro-1-(pyridin-4-yl)-1H-pyrazol-4-yl]-3-(3-chlorophenyl)propanamide]
> 6.00	O=C(CCc1cc(F)c(Cl)c(F)c1)Nc1cnn(-c2ccncc2)c1Br [Example 127, N-[5-Bromo-1-(pyridin-4-yl)-1H-pyrazol-4-yl]-3-(4-chloro-3,5-difluorophenyl)propanamide]
> 6.00	N#Cc1c(F)cc(CCC(=O)Nc2[nH]nc(-c3ccncc3)c2Cl)cc1F [Example 128]
> 6.00	N#Cc1ccc(CCC(=O)Nc2[nH]nc(-c3ccncc3)c2Cl)cc1F [Example 129]
> 6.00	Cc1c(-c2ccncc2)n[nH]c1NC(=O)OCc1ccc(Cl)cc1 [Example 130, 4-Chlorobenzyl (4-methyl-3-(pyridin-4-yl)-1H-pyrazol-5-yl)carbamate]
5.00 to 6.00	Cc1c(-c2ccncc2)n[nH]c1NC(=O)N(C)Cc1ccc(Cl)cc1 [Example 131, 1-(4-Chlorobenzyl)-1-methyl-3-(4-methyl-3-(pyridin-4-yl)-1H-pyrazol-5-yl)urea]
5.00 to 6.00	Cn1c(-c2ccncc2)cnc1NC(=O)CCc1ccc(Cl)cc1 [Example 132]
5.00 to 6.00	CN(C(=O)CCc1ccc(Cl)cc1)c1cnn(-c2ccncc2)c1 [Example 134, 3-(4-Chlorophenyl)-N-methyl-N-(1-(pyridin-4-yl)-1H-pyrazol-4-yl)propanamide]
5.00 to 6.00	Cc1c(-c2ccncc2)n[nH]c1NC(=O)C1CC1c1ccc(Cl)cc1 (centres unmarked) [Example 135, 2-(4-Chlorophenyl)-N-(4-methyl-3-(pyridin-4-yl)-1H-pyrazol-5-yl)cyclopropane-1-carboxamide]
> 6.00	Cc1c(NC(=O)OCc2ccc(Cl)cc2)cnn1-c1ccncc1 [Example 136, 4-Chlorobenzyl (5-methyl-1-(pyridin-4-yl)-1H-pyrazol-4-yl)carbamate]
5.00 to 6.00	Cc1c(NC(=S)CCc2ccc(Cl)cc2)cnn1-c1ccncc1 [Example 137, 3-(4-Chlorophenyl)-N-(5-methyl-1-(pyridin-4-yl)-1H-pyrazol-4-yl)propanethioamide]
> 6.00	Cc1c(-c2ccncc2)n[nH]c1N1CCC(c2ccc(Cl)cc2)CC1=O (centres unmarked) [Example 138, 4-(4-Chlorophenyl)-1-(4-methyl-3-(pyridin-4-yl)-1H-pyrazol-5-yl)piperidin-2-one]
> 6.00	Cc1c(-c2ccncc2)n[nH]c1N(C)C(=O)CCc1ccc(Cl)cc1 [Example 139]
> 6.00	C#Cc1ccc(CCC(=O)Nc2[nH]nc(-c3ccncc3)c2C)cc1 [Example 140]
> 6.00	Cc1c(-c2ccncc2)n[nH]c1NC(=O)NCc1ccc(C#N)cc1 [Example 141, 1-[(4-Cyanophenyl)methyl]-3-[4-methyl-3-(pyridin-4-yl)-1H-pyrazol-5-yl]urea]
> 6.00	Cc1c(-c2ccncc2)n[nH]c1NC(=O)NCc1ccc(F)cc1 [Example 142, 1-[(4-Fluorophenyl)methyl]-3-[4-methyl-3-(pyridin-4-yl)-1H-pyrazol-5-yl]urea]
> 6.00	Cc1c(-c2ccncc2)n[nH]c1NC(=O)NCc1ccc(Cl)nc1 [Example 143, 1-[(6-Chloropyridin-3-yl)methyl]-3-[4-methyl-3-(pyridin-4-yl)-1H-pyrazol-5-yl]urea]
> 6.00	Cc1c(NC(=O)NCc2ccc(Cl)cc2)cnn1-c1ccncc1 [Example 144, 1-(4-Chlorobenzyl)-3-(5-methyl-1-(pyridin-4-yl)-1H-pyrazol-4-yl)urea]
> 6.00	O=C(NCc1cc(F)c(F)c(F)c1)Nc1[nH]nc(-c2ccncc2)c1Cl [Example 145, 1-(4-Chloro-3-(pyridin-4-yl)-1H-pyrazol-5-yl)-3-(3,4,5-trifluorobenzyl)urea]
> 6.00	N#Cc1c(F)cc(CC2CCN(c3cc(-c4ccncc4)n[nH]3)C2=O)cc1F (centres unmarked) [Example 146, 2,6-Difluoro-4-((2-oxo-1-(3-(pyridin-4-yl)-1H-pyrazol-5-yl)pyrrolidin-3-yl)methyl)benzonitrile]
> 6.00	O=C(CCc1ccc(Cl)cc1)Nc1[nH]nc(-c2ccncc2)c1Br [Example 147, N-(4-Bromo-3-(pyridin-4-yl)-1H-pyrazol-5-yl)-3(4-chlorophenyl)propanamide]
5.00 to 6.00	Cc1c(-c2ccncc2)n[nH]c1NC(=O)N[C@H](C)c1ccc(Cl)cc1 [Example 148, (R)-1-(1-(4-Chlorophenyl)ethyl)-3-(4-methyl-3-(pyridin-4-yl)-1H-pyrazol-5-yl)urea]
